According to ChEMBL document CHEMBL5723587, “Data for DCP probe BI-113823” (2024):

Columns and labels:
Rattus norvegicus [1] = species: Rattus norvegicus; experiment: Activity against BZD/CENTR/R in the Eurofins Cerep SafetyScreen44 (BI) by Radioactive Assay (Cerep_28); assay type: protein-complex assay; conditions: Compound concentration 10.0 uM
[2] = biological target: Cannabinoid receptor 1 (Homo sapiens) (UniProt P21554); experiment: CB1 Eurofins-Cerep binding assay; conditions: Compound concentration 10.0 uM
Cannabinoid receptor 1 (Homo sapiens), sequence (P21554 whole entry): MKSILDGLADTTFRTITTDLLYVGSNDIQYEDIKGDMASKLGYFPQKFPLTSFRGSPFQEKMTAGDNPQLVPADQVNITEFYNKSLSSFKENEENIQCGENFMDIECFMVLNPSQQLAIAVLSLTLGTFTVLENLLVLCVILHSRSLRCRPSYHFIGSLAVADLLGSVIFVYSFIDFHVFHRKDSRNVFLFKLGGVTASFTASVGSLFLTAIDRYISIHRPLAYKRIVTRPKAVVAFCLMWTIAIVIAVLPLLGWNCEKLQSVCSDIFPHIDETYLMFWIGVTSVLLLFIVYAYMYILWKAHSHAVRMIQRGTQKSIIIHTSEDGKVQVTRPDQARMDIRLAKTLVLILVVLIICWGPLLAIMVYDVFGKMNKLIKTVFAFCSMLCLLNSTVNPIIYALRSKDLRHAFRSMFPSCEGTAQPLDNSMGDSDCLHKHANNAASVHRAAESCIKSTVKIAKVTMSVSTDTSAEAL

[3] = biological target: Mu-type opioid receptor (Homo sapiens) (UniProt P35372); experiment: mu (MOP) Eurofins-Cerep binding assay; design: ligand concentration 0.5 nM; conditions: Compound concentration 10.0 uM
Mu-type opioid receptor (Homo sapiens), sequence (P35372 whole entry): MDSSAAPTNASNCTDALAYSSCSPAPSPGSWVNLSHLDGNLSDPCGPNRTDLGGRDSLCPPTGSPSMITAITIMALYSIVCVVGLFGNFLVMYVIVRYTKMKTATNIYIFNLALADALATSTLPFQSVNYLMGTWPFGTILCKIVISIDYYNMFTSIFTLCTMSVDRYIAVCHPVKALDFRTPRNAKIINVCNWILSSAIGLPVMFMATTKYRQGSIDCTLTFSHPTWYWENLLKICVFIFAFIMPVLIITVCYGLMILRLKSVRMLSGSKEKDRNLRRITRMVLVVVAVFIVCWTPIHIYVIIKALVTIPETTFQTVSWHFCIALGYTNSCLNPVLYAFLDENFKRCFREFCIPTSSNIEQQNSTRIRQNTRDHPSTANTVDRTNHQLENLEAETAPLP

[4] = biological target: Angiotensin-converting enzyme (Homo sapiens) (UniProt P12821); experiment: Activity against ACE(HU_AMTCH400) in the Eurofins Cerep SafetyScreen44 (BI) by Photometry (Cerep_3441); conditions: Compound concentration 10.0 uM
[5] = biological target: 5-hydroxytryptamine receptor 2A (Homo sapiens) (UniProt P28223); experiment: Agonist activity in the Eurofins Cerep SafetyScreen44 (BI) against 5HT2AH_AGON by Scintillation counting (Cerep_471); conditions: Compound concentration 10.0 uM
[6] = biological target: Tyrosine-protein kinase Lck (Homo sapiens) (UniProt P06239); experiment: Inhibitor of LCK_CE in the Eurofins Cerep SafetyScreen44 (BI) by lanthanide chelation excitation (Cerep_2906); conditions: Compound concentration 10.0 uM
[7] = biological target: Beta-1 adrenergic receptor (Homo sapiens) (UniProt P08588); experiment: beta 1 Eurofins-Cerep binding assay; design: ligand concentration 0.3 nM; conditions: Compound concentration 10.0 uM
Beta-1 adrenergic receptor (Homo sapiens), sequence (P08588 whole entry, looked up): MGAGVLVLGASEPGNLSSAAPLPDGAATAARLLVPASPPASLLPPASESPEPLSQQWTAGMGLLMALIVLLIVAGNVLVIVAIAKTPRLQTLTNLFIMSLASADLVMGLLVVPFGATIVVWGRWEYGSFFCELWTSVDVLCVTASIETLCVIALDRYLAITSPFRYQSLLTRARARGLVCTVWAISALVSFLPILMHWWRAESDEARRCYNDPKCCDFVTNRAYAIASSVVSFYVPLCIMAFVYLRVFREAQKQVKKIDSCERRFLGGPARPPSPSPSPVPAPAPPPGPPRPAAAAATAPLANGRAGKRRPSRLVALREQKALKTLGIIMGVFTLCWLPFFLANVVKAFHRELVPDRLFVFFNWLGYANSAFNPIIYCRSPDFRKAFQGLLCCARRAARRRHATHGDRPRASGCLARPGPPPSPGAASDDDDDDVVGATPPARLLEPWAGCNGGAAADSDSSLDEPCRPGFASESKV

Homo sapiens = species: Homo sapiens; experiment: Agonist activity in the Eurofins Cerep SafetyScreen44 (BI) against N_NEURO_A4B2 by Radioligand Binding (Cerep_3029); assay type: protein-complex assay; conditions: Compound concentration 10.0 uM
B1 bradykinin receptor [8] = biological target: T1, B1 bradykinin receptor (Homo sapiens, UniProt P46663); experiment: Radioligand binding assay (displacement of kallidin, hBDKRB1 ) at 10 µM ( Non-specific binding is estimated in the presence of 10 µM Des-Arg9- (Leu8)-Bradykinin. Membranes are filtered and washed, the filters are then counted to determine [3H]Kallidin[des-Arg10, Leu9] specifically bound.); design: compound concentration 10 uM
T1 sequence (P46663 whole entry): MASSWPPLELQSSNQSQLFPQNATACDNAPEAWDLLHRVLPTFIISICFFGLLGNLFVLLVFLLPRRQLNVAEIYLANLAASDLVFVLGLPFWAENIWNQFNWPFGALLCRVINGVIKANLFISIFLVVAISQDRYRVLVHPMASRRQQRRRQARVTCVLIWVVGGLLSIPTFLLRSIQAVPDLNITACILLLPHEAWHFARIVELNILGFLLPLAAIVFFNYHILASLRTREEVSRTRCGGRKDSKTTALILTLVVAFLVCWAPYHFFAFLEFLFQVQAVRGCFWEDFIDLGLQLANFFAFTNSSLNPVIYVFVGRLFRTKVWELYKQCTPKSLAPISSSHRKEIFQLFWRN

[9] = biological target: Beta-2 adrenergic receptor (Homo sapiens) (UniProt P07550); experiment: beta 2 Eurofins-Cerep binding assay; conditions: Compound concentration 10.0 uM
[10] = biological target: Endothelin-1 receptor (Homo sapiens) (UniProt P25101); experiment: ETA Eurofins-Cerep binding assay; design: ligand concentration 0.03 nM; conditions: Compound concentration 10.0 uM
[11] = biological target: MAO-A (amine oxidase [flavin-containing] A) (Homo sapiens, UniProt P21397); experiment: Agonist activity in the Eurofins Cerep SafetyScreen44 (BI) against MAO-A_ANTAG by Scintillation counting (Cerep_443); design: scale not given: the % may be the effect or the level left; conditions: rat; compound concentration 10 uM; target entry is the homologue from another species; read-out: % Ctrl
[12] = biological target: cGMP-inhibited 3',5'-cyclic phosphodiesterase 3A (Homo sapiens) (UniProt Q14432); experiment: Inhibitor of PDE3A in the Eurofins Cerep SafetyScreen44 (BI) by HTRF-homogeneous time resolved fluoresce (Cerep_4072); conditions: Compound concentration 10.0 uM
[13] = biological target: Muscarinic acetylcholine receptor M1 (Homo sapiens) (UniProt P11229); experiment: M1 Eurofins-Cerep binding assay; design: ligand concentration 2 nM; conditions: Compound concentration 10.0 uM
[14] = biological target: 3',5'-cyclic-AMP phosphodiesterase 4D (Homo sapiens) (UniProt Q08499); experiment: Inhibitor of PDE4D2 in the Eurofins Cerep SafetyScreen44 (BI) by Scintillation counting (Cerep_4077); conditions: Compound concentration 10.0 uM
[15] = biological target: Prostaglandin G/H synthase 2 (Homo sapiens) (UniProt P35354); experiment: Inhibitor of COX-2 in the Eurofins Cerep SafetyScreen44 (BI) by Fluorimetry (Cerep_4186); conditions: Compound concentration 10.0 uM
Prostaglandin G/H synthase 2 (Homo sapiens), sequence (P35354 whole entry): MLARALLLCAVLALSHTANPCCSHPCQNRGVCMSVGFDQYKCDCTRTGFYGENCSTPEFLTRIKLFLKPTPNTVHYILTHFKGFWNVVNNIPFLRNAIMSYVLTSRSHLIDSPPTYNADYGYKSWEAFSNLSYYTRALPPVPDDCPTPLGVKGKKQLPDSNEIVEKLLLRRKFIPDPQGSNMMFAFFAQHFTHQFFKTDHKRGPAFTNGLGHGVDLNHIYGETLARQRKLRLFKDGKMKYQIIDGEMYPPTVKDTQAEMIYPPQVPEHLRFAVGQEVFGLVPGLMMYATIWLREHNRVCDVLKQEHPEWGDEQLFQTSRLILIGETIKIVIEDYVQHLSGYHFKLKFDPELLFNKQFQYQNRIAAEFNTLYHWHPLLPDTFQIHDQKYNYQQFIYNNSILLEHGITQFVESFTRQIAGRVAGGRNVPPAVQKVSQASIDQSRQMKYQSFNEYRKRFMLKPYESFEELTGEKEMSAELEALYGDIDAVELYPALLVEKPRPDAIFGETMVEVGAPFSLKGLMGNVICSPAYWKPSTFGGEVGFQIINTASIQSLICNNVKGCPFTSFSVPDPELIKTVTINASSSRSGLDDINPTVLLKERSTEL

[16] = biological target: Muscarinic acetylcholine receptor M2 (Homo sapiens) (UniProt P08172); experiment: M2 Eurofins-Cerep binding assay; design: ligand concentration 2 nM; conditions: Compound concentration 10.0 uM
[17] = biological target: Kappa-type opioid receptor (Homo sapiens) (UniProt P41145); experiment: kappa (KOP) Eurofins-Cerep binding assay; conditions: Compound concentration 10.0 uM
[18] = biological target: Sodium-dependent noradrenaline transporter (Homo sapiens) (UniProt P23975); experiment: norepinephrine transporter Eurofins-Cerep binding assay; design: ligand concentration 1 nM; conditions: Compound concentration 10.0 uM
[19] = biological target: Histamine H1 receptor (Homo sapiens) (UniProt P35367); experiment: H1 Eurofins-Cerep binding assay; design: ligand concentration 1 nM; conditions: Compound concentration 10.0 uM
hERG (KCNH2) = hERG (KCNH2) (Homo sapiens, UniProt Q12809); experiment: Inhibitor of HERG_DOFETILIDE in the Eurofins Cerep SafetyScreen44 (BI) by Scintillation counting (Cerep_4094); design: scale not given: the % may be the effect or the level left; conditions: probe [3H]dofetilide, compound concentration 10 uM, read-out: % Ctrl
hERG (KCNH2), sequence (Q12809 whole entry): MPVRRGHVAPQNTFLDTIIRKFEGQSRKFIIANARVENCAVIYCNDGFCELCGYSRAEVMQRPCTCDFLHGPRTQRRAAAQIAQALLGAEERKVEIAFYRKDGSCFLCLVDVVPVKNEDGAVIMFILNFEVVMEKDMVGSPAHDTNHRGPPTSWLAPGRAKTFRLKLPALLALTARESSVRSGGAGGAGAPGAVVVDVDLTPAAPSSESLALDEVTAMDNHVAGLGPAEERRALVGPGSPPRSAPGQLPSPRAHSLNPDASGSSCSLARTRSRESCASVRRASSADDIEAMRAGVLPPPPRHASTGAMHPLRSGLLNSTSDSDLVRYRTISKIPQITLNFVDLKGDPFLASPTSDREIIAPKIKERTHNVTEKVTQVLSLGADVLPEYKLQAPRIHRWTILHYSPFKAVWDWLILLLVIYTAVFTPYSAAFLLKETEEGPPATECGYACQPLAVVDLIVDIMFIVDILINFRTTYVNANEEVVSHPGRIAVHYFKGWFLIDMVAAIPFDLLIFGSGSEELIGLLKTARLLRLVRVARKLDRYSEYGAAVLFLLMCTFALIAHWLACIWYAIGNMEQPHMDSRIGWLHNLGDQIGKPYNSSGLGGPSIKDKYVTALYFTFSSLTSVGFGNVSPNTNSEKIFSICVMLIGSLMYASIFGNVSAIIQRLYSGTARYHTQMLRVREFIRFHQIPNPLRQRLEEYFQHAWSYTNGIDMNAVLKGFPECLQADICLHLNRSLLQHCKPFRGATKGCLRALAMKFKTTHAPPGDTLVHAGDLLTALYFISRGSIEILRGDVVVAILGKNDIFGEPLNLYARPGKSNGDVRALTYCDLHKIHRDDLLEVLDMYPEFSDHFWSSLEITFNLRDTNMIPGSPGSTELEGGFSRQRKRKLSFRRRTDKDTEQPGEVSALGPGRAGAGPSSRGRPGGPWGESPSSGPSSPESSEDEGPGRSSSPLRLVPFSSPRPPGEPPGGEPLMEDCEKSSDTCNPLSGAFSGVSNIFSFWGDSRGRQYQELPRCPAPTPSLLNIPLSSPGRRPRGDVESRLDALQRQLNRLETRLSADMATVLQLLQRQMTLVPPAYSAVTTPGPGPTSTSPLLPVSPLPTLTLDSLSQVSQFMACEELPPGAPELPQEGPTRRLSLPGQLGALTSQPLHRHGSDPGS

[20] = biological target: Sodium-dependent dopamine transporter (Homo sapiens) (UniProt Q01959); experiment: dopamine transporter Eurofins-Cerep binding assay; conditions: Compound concentration 10.0 uM
[21] = biological target: Vasopressin V1a receptor (Homo sapiens) (UniProt P37288); experiment: V1a Eurofins-Cerep binding assay; design: ligand concentration 0.3 nM; conditions: Compound concentration 10.0 uM
[22] = biological target: 5-hydroxytryptamine receptor 3A (Homo sapiens) (UniProt P46098); experiment: 5-HT3 Eurofins-Cerep binding assay; design: ligand concentration 0.5 nM; conditions: Compound concentration 10.0 uM
[23] = biological target: Prostaglandin G/H synthase 1 (Homo sapiens) (UniProt P23219); experiment: Inhibitor of COX-1 in the Eurofins Cerep SafetyScreen44 (BI) by Fluorimetry (Cerep_4173); conditions: Compound concentration 10.0 uM
[24] = biological target: 5-hydroxytryptamine receptor 1B (Homo sapiens) (UniProt P28222); experiment: 5-HT1B Eurofins-Cerep binding assay; design: ligand concentration 1 nM; conditions: Compound concentration 10.0 uM
5-hydroxytryptamine receptor 1B (Homo sapiens), sequence (P28222 whole entry): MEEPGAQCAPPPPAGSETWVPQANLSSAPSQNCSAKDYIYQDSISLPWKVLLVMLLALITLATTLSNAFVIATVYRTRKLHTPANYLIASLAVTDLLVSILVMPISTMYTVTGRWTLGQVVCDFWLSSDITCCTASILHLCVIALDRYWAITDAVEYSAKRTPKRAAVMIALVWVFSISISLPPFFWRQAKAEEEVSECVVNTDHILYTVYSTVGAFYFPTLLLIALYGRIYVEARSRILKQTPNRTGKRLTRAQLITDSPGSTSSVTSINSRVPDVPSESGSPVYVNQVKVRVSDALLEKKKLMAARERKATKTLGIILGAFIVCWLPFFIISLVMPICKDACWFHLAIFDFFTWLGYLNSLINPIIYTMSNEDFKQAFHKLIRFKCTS

[25] = biological target: Histamine H2 receptor (Homo sapiens) (UniProt P25021); experiment: H2 Eurofins-Cerep binding assay; design: ligand concentration 0.075 nM; conditions: Compound concentration 10.0 uM
[26] = biological target: Alpha-1A adrenergic receptor (Homo sapiens) (UniProt P35348); experiment: Agonist activity in the Eurofins Cerep SafetyScreen44 (BI) against ALPHA1AH_ANTAG by Scintillation counting (Cerep_2338); conditions: Compound concentration 10.0 uM
[27] = biological target: Androgen receptor (Homo sapiens) (UniProt P10275); conditions: Compound concentration 10.0 uM
Description: Activity against ANDROGEN/H in the Eurofins Cerep SafetyScreen44 (BI) by Radioactive Assay (Cerep_933)

[28] = biological target: 5-hydroxytryptamine receptor 2B (Homo sapiens) (UniProt P41595); experiment: 5-HT2B Eurofins-Cerep binding assay; conditions: Compound concentration 10.0 uM
[29] = biological target: L-type calcium channel (dihydropyridine site), Cav1.2 alpha-1C (Rattus norvegicus, UniProt P22002); experiment: Inhibitor of CA+/DHPSI/R in the Eurofins Cerep SafetyScreen44 (BI) by Radioactive Assay (Cerep_161); assay type: protein assay; design: scale not given: the % may be the effect or the level left; conditions: rat brain, probe [3H](+)PN200-110, compound concentration 10 uM, read-out: % Ctrl
[30] = biological target: Cholecystokinin receptor type A (Homo sapiens) (UniProt P32238); experiment: CCK1 (CCKA) Eurofins-Cerep binding assay; design: ligand concentration 0.08 nM; conditions: Compound concentration 10.0 uM
[31] = biological target: Alpha-2A adrenergic receptor (Homo sapiens) (UniProt P08913); experiment: Inhibitor of ALPHA2A/HU in the Eurofins Cerep SafetyScreen44 (BI) by Radioactive Assay (Cerep_13); conditions: Compound concentration 10.0 uM
[32] = biological target: D(1A) dopamine receptor (Homo sapiens) (UniProt P21728); experiment: D1 Eurofins-Cerep binding assay; design: ligand concentration 0.3 nM; conditions: Compound concentration 10.0 uM
[33] = biological target: Glucocorticoid receptor (Homo sapiens) (UniProt P04150); experiment: GR Eurofins-Cerep binding assay; conditions: Compound concentration 10.0 uM
Glucocorticoid receptor (Homo sapiens), sequence (P04150 whole entry): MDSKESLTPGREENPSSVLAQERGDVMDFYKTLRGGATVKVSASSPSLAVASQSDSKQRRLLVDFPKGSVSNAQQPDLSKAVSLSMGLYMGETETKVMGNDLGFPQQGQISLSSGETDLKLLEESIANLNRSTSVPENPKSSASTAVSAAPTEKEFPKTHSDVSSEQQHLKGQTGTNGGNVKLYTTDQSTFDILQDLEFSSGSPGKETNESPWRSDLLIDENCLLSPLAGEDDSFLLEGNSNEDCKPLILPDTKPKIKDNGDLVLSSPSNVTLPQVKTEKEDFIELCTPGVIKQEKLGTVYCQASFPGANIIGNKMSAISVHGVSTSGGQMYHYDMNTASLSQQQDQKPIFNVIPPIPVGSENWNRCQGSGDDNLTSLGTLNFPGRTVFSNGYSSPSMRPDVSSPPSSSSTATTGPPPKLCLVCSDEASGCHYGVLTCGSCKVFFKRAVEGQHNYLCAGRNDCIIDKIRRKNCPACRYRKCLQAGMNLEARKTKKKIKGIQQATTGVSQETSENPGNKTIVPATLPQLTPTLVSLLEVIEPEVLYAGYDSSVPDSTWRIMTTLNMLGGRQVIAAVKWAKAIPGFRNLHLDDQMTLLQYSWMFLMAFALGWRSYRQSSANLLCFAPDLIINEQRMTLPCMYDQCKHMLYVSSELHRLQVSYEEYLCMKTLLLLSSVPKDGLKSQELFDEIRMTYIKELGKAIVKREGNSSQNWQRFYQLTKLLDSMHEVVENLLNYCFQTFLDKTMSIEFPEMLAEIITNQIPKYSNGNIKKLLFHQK

[34] = biological target: D(2) dopamine receptor (Homo sapiens) (UniProt P14416); experiment: Agonist activity in the Eurofins Cerep SafetyScreen44 (BI) against D2SH_AGON by Scintillation counting (Cerep_1322); conditions: Compound concentration 10.0 uM
B1 bradykinin receptor [35] = biological target: T1, B1 bradykinin receptor; experiment: Measurement of intracellular calcium in HEK-cells expressing hBDKRB1 at up to 1 µM ( The compound antagonizes the effects of the specific B1 agonist [Lys-des-Arg9 ]-Bradykinin (10 nM) in a concentration-dependent manner.); assay type: functional, cell-based; design: compound concentration < 1 uM
[36] = biological target: Adenosine receptor A2a (Homo sapiens) (UniProt P29274); experiment: A2A Eurofins-Cerep binding assay; design: ligand concentration 6 nM; conditions: Compound concentration 10.0 uM
[37] = biological target: 5-hydroxytryptamine receptor 1A (Homo sapiens) (UniProt P08908); experiment: 5-HT1A Eurofins-Cerep binding assay; design: ligand concentration 0.5 nM; conditions: Compound concentration 10.0 uM
[38] = biological target: Muscarinic acetylcholine receptor M3 (Homo sapiens) (UniProt P20309); experiment: M3 Eurofins-Cerep binding assay; design: ligand concentration 0.2 nM; conditions: Compound concentration 10.0 uM
Muscarinic acetylcholine receptor M3 (Homo sapiens), sequence (P20309 whole entry, looked up): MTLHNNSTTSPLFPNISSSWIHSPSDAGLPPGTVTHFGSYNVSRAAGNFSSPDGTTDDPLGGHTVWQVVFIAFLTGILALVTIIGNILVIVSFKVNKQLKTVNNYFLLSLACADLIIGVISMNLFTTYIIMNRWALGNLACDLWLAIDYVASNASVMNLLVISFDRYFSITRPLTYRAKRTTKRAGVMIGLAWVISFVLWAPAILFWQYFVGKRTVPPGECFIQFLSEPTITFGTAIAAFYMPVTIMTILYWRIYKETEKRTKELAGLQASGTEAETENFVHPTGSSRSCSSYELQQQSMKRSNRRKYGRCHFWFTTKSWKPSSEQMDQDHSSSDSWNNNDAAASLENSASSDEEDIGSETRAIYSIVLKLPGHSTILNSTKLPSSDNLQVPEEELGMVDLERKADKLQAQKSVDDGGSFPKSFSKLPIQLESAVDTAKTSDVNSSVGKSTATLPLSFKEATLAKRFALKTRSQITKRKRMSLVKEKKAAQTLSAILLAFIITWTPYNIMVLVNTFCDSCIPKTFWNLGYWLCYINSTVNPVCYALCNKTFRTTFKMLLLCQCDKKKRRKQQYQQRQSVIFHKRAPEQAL

[39] = biological target: Delta-type opioid receptor (Homo sapiens) (UniProt P41143); experiment: delta (DOP) Eurofins-Cerep binding assay; design: ligand concentration 0.5 nM; conditions: Compound concentration 10.0 uM
[40] = biological target: Cannabinoid receptor 2 (Homo sapiens) (UniProt P34972); experiment: Activity against CB2/PERIPH/H in the Eurofins Cerep SafetyScreen44 (BI) by Radioactive Assay (Cerep_37); conditions: Compound concentration 10.0 uM
[41] = biological target: Glutamate NMDA receptor (Rattus norvegicus) (UniProt P35439+Q00959+Q00960+Q00961+Q62645+Q8VHN2+Q9R1M7); experiment: Inhibitor of NMDA/R in the Eurofins Cerep SafetyScreen44 (BI) by Radioactive Assay (Cerep_66); assay type: protein-complex assay; conditions: Compound concentration 10.0 uM
[42] = biological target: Sodium-dependent serotonin transporter (Homo sapiens) (UniProt P31645); experiment: 5-HT transporter Eurofins-Cerep binding assay; design: ligand concentration 2 nM; conditions: Compound concentration 10.0 uM
Rattus norvegicus [43] = species: Rattus norvegicus; experiment: KV channel Eurofins-Cerep binding assay; design: ligand concentration 0.01 nM; conditions: Compound concentration 10.0 uM

- residual activity [2]: 137%
- residual activity [3]: 96%
- residual activity [7]: 97%
- Ki (B1 bradykinin receptor [8]): 431 nM (not active)
- residual activity [9]: 101%
- residual activity [10]: 109%
- residual activity [13]: 89%
- residual activity [16]: 67%
- residual activity [17]: 42%
- residual activity [18]: 93%
- residual activity [19]: 104%
- residual activity [20]: 98%
- residual activity [21]: 87%
- residual activity [22]: 93%
- residual activity [24]: 92%
- residual activity [25]: 113%
- residual activity [27]: 90%
- residual activity [28]: 81%
- residual activity [30]: 85%
- residual activity [32]: 94%
- residual activity [33]: 102%
- IC50 (B1 bradykinin receptor [35]): 699 nM (not active)
- residual activity [36]: 124%
- residual activity [37]: 99%
- residual activity [38]: 92%
- residual activity [39]: 87%
- residual activity [42]: 103%
- residual activity (Rattus norvegicus [43]): 98%
SMILES: COc1cc(C)c(S(=O)(=O)N(C)CCC(=O)N[C@H]2CC[C@@H](N3CCC4CN(C)CC4C3)CC2)c(C)c1 (stereo not given in full)
- residual activity (Rattus norvegicus [1]): 105%
- residual activity [4]: 97%
- residual activity [5]: 108%
- residual activity [6]: 94%
- residual activity (Homo sapiens): 98%
- activity at 10 µM [11]: 106% (not active)
- residual activity [12]: 105%
- residual activity [14]: 104%
- residual activity [15]: 98%
- activity at 10 µM (hERG (KCNH2)): 63% (not active)
- residual activity [23]: 85%
- residual activity [26]: 91%
- activity at 10 µM [29]: 120% (not active)
- residual activity [31]: 90%
- residual activity [34]: 97%
- residual activity [40]: 106%
- residual activity [41]: 112%
